Drawing on patent US8921405B2, “Compounds” (Orexo AB, priority 2009, dated 2014), this text covers IC50 and inhibition for eleven compounds.

In this test the target is T1, recombinant human mPGES-1 (Homo sapiens, UniProt O14684).
T1 construct: made in house; host or cells: Rosetta E. coli (membrane/microsome fraction)
T1 sequence (O14684 1-152): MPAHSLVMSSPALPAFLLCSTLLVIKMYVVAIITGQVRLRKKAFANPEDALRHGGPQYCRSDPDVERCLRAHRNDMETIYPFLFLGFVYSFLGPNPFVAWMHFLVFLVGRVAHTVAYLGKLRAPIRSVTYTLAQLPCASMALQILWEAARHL
Briefly: mPGES-1 HTRF assay (inhibition of PGE2 formation from PGH2). The class given is biochemical. The settings on record: HTRF assay; for inhibition at 10 µM: compound concentration of 10 μM, read-out: % inhibition. The method, then: The basis of the assay used is to measure the inhibition of microsomal prostaglandin E2 synthase-1 (mPGES-1) dependent prostaglandin (PG) E2 formation from PGH2 by different compounds. Thus, the formation of PGE2 is used as signal and a lowering of this signal can be interpreted as inhibition of mPGES-1. […] Microsomes from Rosetta E. coli bacteria expressing recombinant human mPGES-1 can be derived as described below: Inoculate 5 ml LB with Amp and Chloro with bacteria from freeze culture. Incubate over night at 37° C. with 200 rpm. Thereafter, inoculate 500-800 ml LB containing Amp and Chloro with the 5 ml on culture and grow to OD640 of 0.6-0.8. Chill the culture to +4° C. before induction. Induce the culture with IPTG at a final concentration of 400 μM. Express the protein at room temp 18-23° C. with 200 rpm shaking over night. The following steps can be performed on the following day: • 1. Spin down the cells in 250 ml centrifuge flasks for 15 min at 7000 rpm • 2. Dissolve the pellet from 250 ml culture in 12.5 ml homogenization buffer • 3. Disintegrate the cells by sonication, 4×10 seconds at 35% amplitude • 4. Add 2.5 ml MgCl2 (100 mM) and DNase 12.5 μl (0.8 mg/ml) and incubate on ice for 30 min • 5. Spin down the bacteria debris and save the supernatant, 7000 rpm for 15 min • 6. Isolate the protein containing membranes in the supernatant by ultracentrifugation 45000×g for 1 hour. • 7. Discard the supernatant and dissolve the pellet in 20 mM KPi buffer and aliquot the enzyme and store aliquots at −80° C. Before each experiment is performed an aliquot of the enzyme is thawed and it can then be dissolved in 0.1 M KPi pH 7.4 buffer containing 2.5 mM GSH. 50 μl of this enzyme solution is subsequently dispensed in a 384-well plate at room temperature. 0.5 μl of the inhibitor dissolved in DMSO is thereafter added to each well and incubated for 25 minutes at room temperature. Subsequently, 2 μl of PGH2 dissolved in an appropriate solvent is added to each well and after one minute at room temperature, the acidified stop solution containing FeCl2 is added. 4 μl of the total volume is transferred to a separate plate and diluted 750-fold in two separate steps before quantification of PGE2. In order to quantitate the amount of PGE2 that has been formed, a homogenous time resolved fluorescent (HTRF) detection of PGE2 can be performed by the use of a commercially available kit from CisBio essentially according to the manufacturer's protocol. […] The sealing film is thereafter removed from the NC wells. • 5 μl Eu3+-cryptate labeled anti-PGE2 can now be added to rows 1 to 24 by using a Multidrop. • The plate can now be covered with sealing film. • The plate can now be centrifuge at 1200 rpm for 1 minute and place at 4° C. overnight. After the over night incubation the fluorescence is measured by the use of an appropriate microplate reader. […] The extent of the specific HTRF is measured as a ratio of the emission intensity at 665 nm vs. that at 620 nm. A standard curve using synthetic PGE2 is used to quantify the amount of PGE2 in unknown samples. The degree of inhibition can be calculated as percent inhibition by dividing the amount of PGE2 formed in unknown samples by the amount of PGE2 formed in control samples.
On the technique in general: Time-resolved FRET reads energy transfer from a long-lived donor to a nearby acceptor.

Take `COc1cc2[nH]c(Nc3cc(CNC(=O)C4(O)CC4)ccc3C(F)(F)F)nc2cc1C(=O)N[C@H]1CC[C@H](C(F)(F)F)CC1` [Example 94, N-(trans-4-Trifluoromethyl-cyclohex-1-yl)-2-(2-trifluoromethyl-5-{[(1-hydroxy-cyclopropane-carbonyl)amino]-methyl}-phenylamino)-6-methoxy-1H-benzimidazole-5-carboxylic acid amide]: the IC50 came to 3 nM. On to `Cn1c(Nc2cc(CNC(=O)C3(C)CCCCC3)ccc2Cl)nc2cc(C(=O)N3CCCC3)ccc21` [Example 12, N-{4-Chloro-3-[1-methyl-5-(1-pyrrolidinylcarbonyl)-2-benzimidazolylamino]benzyl}-1-methylcyclohexylamide], for which the inhibition at 10 µM is 100%. Take `Cn1c(Nc2cc(CNC(=O)C(C)(C)C)ccc2Cl)nc2cc(C(=O)Nc3ccc(Br)cc3)ccc21` [Example 57, N-(4-Bromophenyl)-2-{2-chloro-5-[(tert.butylcarbonylamino)methyl]-phenylamino}-1-methylbenzimidazole-5-carboxamide]: the half-inhibitory concentration (IC50) is 1 nM. For `Cn1c(Nc2cc(CNC(=O)c3c(F)cccc3Cl)ccc2Cl)nc2cc(C(=O)NCC3CCCCC3)ccc21` [Example 27, 2-{2-Chloro-5-[(2-chloro-6-fluorobenzamido)methyl]phenylamino}-N-cyclohexylmethyl-1-methylbenzimidazole-5-carboxamide], the inhibition at 10 µM came out at 100%. As for `Cn1c(Nc2cc(CNC(=O)C3(C)CCCCC3)ccc2Cl)nc2cc(Cl)c(NC(=O)c3ccc(Br)cc3)cc21` [Example 25, 4-Bromo-N-(5-chloro-2-{2-chloro-5-[(1-methylcyclohexylamido)methyl]phenylamino}-1-methyl-6-benzimidazolyl)benzamide], the inhibition at 10 µM is 99%. Still for that read-out and setting: with `Cn1c(Nc2cc(CNC(=O)C3(C)CCCCC3)ccc2Cl)nc2cc(S(=O)(=O)NC3CCCC3)ccc21` [Example 7, N-{4-Chloro-3-[5-(N-cyclopentylsulfamoyl)-1-methyl-2-benzimidazolylamino]benzyl}-1-methylcyclohexylamide] the figure was 98%; with `Cn1c(Nc2cc(CNC(=O)C3(C)CC3)ccc2Cl)nc2cc(C(=O)NCC3CCCCC3)ccc21` [Example 8, 2-{2-Chloro-5-[(1-methylcyclopropylamido)methyl]phenylamino}-N-cyclohexylmethyl-1-methylbenzimidazole-5-carboxamide], 98%. With `CC(C)(C)C(=O)NCc1ccc(Cl)c(Nc2nc3cc(C(=O)Nc4ccc(Br)cc4)c(OCC(F)F)cc3n2CC(F)F)c1` [Example 100, N-(4-Bromo-phenyl)-2-(2-chloro-5-{[(tert-butylcarbonyl)-amino]-methyl}-phenylamino)-6-(2,2-difluoro-ethoxy)-1-(2,2-difluoroethyl)-1H-benzimidazole-5-carboxylic acid amide], the half-maximal inhibitory concentration (IC50) turned out to be 5 nM.

On to `Cn1c(Nc2cc(CNC(=O)C3(C(F)(F)F)CC3)ccc2Cl)nc2cc(C(=O)NCCOC(C)(C)C)ccc21` [Example 52, N-(2-tert-Butoxyethyl)-2-{2-chloro-5-[(1-trifluoromethylcyclopropyl-amido)methyl]phenylamino}-1-methylbenzimidazole-5-carboxamide], for which the inhibition at 10 µM is 96%. Still for that read-out and setting: for `Cn1c(Nc2cc(CNC(=O)C3(C)CCCCC3)ccc2Cl)nc2cc(C(=O)NCCOC(C)(C)C)ccc21` [Example 15, N-(2-tert-Butoxyethyl)-2-{2-chloro-5-[(1-methylcyclohexylamido)methyl]phenylamino}-1-methylbenzimidazole-5-carboxamide] the value was 99%.

Turning to `CC(=O)NCc1ccc(Cl)c(Nc2nc3cc(C(=O)Nc4ccc(Br)cc4)c(OCC(F)F)cc3n2C)c1` [Example 79, N-(4-Bromo-phenyl)-2-(2-chloro-5-{[(methylcarbonyl)-amino]-methyl}-phenylamino)-6-(2,2-difluoro-ethoxy)-1-methyl-1H-benzimidazole-5-carboxylic acid amide], the half-inhibitory concentration (IC50) was 4 nM.

For orientation: IC50 means the concentration needed to halve the response being measured. One may read the inhibition as the percentage by which the read-out fell short of the control.
